Results: PMC10539800, “Small-molecule inhibitors of the PDZ domain of Dishevelled proteins interrupt Wnt signalling” (Magnetic resonance, 2021)
“Also recorded” adds a separate entry of the source.

Tests used:
[1] = system: Wnt target genes (Axin2, LEF1, Bmp2) in HeLa cells; assay: qRT-PCR of Wnt target genes; type: cell-based; conditions: HeLa cells treated with Wnt3a, 24 h; 150 µM
Text: (§1) Increased β -catenin protein level is a hallmark of active Wnt signalling (Kishida et al., 1999). Once β -catenin is accumulated in the cytoplasm, it can translocate into the nucleus and activate the transcription of Wnt target genes by interacting with transcription factors of the TCF/LEF family (Fig. 2a) (Behrens et al., 1996). […] Increased mRNA levels of the Wnt target genes Axin2, LEF1, and Bmp2 (Riese et al., 1997; Jho et al., 2002; Lewis et al., 2010) were induced by Wnt3a treatment, as measured by qRT-PCR, and these increases were reduced by compounds 18, 20, and 21 (Fig. 2f).
To measure the Wnt target accumulation at mRNA level, HeLa cells were treated with Wnt3a in the presence of Dvl inhibitors for 24 h. mRNA was extracted according to the standard TRIzol® protocol (Invitrogen) and reverse-transcribed using random primers (Invitrogen) and M-MLV reverse transcriptase (Promega). The qRT-PCR was performed in a iQ5 multi-colour real-time PCR detection system (Bio-Rad) using SYBR® Green (Thermo Scientific) and gene-specific primer pairs of Bmp2, Axin2, LEF1, and β -actin (endogenous control).

[2] = molecular target: T1, Dvl-1 PDZ (Homo sapiens, UniProt O14640, C338S/V250I); conditions: for T Δ S Dvl-1 PDZ / Δ G Dvl-1 PDZ / Δ H Dvl-1 PDZ: ITC
T1 sequence (O14640 245-338 V250I/C338S): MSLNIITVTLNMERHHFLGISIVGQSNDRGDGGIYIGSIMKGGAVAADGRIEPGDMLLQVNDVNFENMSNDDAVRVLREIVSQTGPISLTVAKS
Experimental: (§5) Isothermal titration calorimetry (ITC) experiments were performed using a VP-ITC system (MicroCal). Protein in 20 mM HEPES buffer and 50 mM NaCl (pH 7.4) was centrifuged and degassed before the experiment. A 200 µM ligand solution containing 2 % DMSO was injected 30 times in 10 µL aliquots at 120 s intervals with a stirring speed of 1000 rpm into a 1.4 mL sample cell containing the Dvl PDZ domain at a concentration of 20 µM at 25 ^∘ C. Control experiment was initially determined by titrating ligand into buffer at the same conditions. […] Thermodynamic properties and binding constants were determined by fitting the data with a non-linear least-squares routine using a single-site binding model with Origin (OriginLab) for ITC v.7.2 (MicroCal).

[3] = system: Wnt signalling (TOP-luciferase) in HeLa cells; assay: TOPflash luciferase reporter assay; type: cell-based
Experimental: (§2) To further evaluate the specificity of our Dvl inhibitors, the conventional TOPflash (Molenaar et al., 1996) and other luciferase reporter assays were performed.
(§3) Plasmids encoding a firefly luciferase reporter gene under the control of different responsive elements were transfected into HeLa cells with a pRL-SV40 normalization reporter plasmid using the Lipofectamine 2000 (Invitrogen). After desired treatment, cells were harvested in the passive lysis buffer (Promega), and 15 µL cell lysate was transferred to 96-well LumiNunc plates (Thermo Scientific). Firefly luciferase and Renilla luciferase were detected with the D-luciferin buffer (75 mM HEPES, 4 mM MgSO 4 , 20 mM DTT, 100 µM EDTA, 0.5 mM ATP, 135 µM Coenzyme A, and 100 µM D-Luciferin sodium salt; pH 8.0) and the coelenterazine buffer (15 mM Na4PPi, 7.5 mM NaAc, 10 mM CDTA, 400 mM Na 2 SO 4 , 25 µM APMBT, and 1.1 µM coelenterazine; pH 5.0), respectively, using the CentroXS LB960 lumiometer (Berthold Technologies).

[4] = system: β-catenin protein level in HeLa cells; assay: Western blotting of β-catenin levels; type: cell-based; conditions: HeLa cells treated with Wnt3a, 24 h; 150 µM
Text: as §1
To assess the β -catenin accumulation in HeLa cells, cells were treated with Wnt3a in the presence of Dvl inhibitors for 24 h and lysed in RIPA buffer (50 mM Tris, pH 8.0, 1 % NP-40, 0.5 % deoxycholate, 0.1 % SDS, 150 mM NaCl). Equal amounts of protein were loaded on a SDS-PAGE. Separated proteins were blotted onto PVDF membranes (polyvinylidene fluoride) for immunoblot analysis using anti- β -catenin antibody (610154, BD). HRP-conjugated anti-mouse antibody (715-035-150, Jackson ImmunoResearch Laboratories) was used for secondary detection with Western lightning chemiluminescence reagent plus (PerkinElmer) and Vilber Lourmat imaging system SL-3.

[5] = system: NF-κB signalling; assay: NF-κB-luciferase reporter assay; type: cell-based; conditions: stimulated by recombinant TNFα
Experimental: as §2, §3

[6] = system: Oct4; assay: Oct-luciferase reporter assay; type: cell-based; conditions: stimulated by overexpression of Oct4
Experimental: as §2, §3

[7] = system: Notch signalling; assay: Notch-luciferase reporter assay; type: cell-based; conditions: stimulated by overexpression of Notch intracellular domain
Experimental: as §2, §3

[8] = molecular target: T2, Dvl-3 PDZ (Homo sapiens, UniProt Q92997); assay: Binding constant by isothermal titration calorimetry (ITC); conditions: for T Δ S Dvl-3 PDZ / Δ G Dvl-3 PDZ / Δ H Dvl-3 PDZ: ITC; for Kd: by ITC, one-site binding model, 25 °C, read-out: K D Dvl-3 PDZ
T2 construct: spectra of Dvl-3 PDZ in the absence and presence of the compound; His-tag (cleaved yes); made in house
T2 sequence (Q92997 243-336): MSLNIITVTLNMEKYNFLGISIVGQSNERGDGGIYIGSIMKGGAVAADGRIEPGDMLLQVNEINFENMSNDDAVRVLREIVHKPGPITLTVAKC
Experimental: as §5

[9] = system: SW480 cells; assay: Trans-well migration assay; type: cell-based; conditions: 24 h, 50–100 µM
Experimental: (§4) Canonical Wnt signalling contributes to cancer progression by inducing high motility and invasion of cancer cells while retaining the self-renewal property of cancer-initiating cells (Fritzmann et al., 2009; Sack et al., 2011; Vermeulen et al., 2010; Malanchi et al., 2008). […] Compounds 18 and 20 prevented increased cell migration and sphere formation.
Cell motility was assessed using 24-well trans-well assay (pore diameter: 8 µm , Corning). SW480WL cells were seeded in the upper chamber in serum-free DMEM with 0.1 % BSA; 20 % serum was supplemented to medium in the lower chamber. After incubation with Wnt3a in the presence of Dvl inhibitors for 24 h, non-migrant cells were scraped off using a cotton swab; the migrated cells on the filters were stained with DAPI, photographed, and counted.

[10] = system: SW480 cells; assay: Colon sphere culture (sphere formation); type: cell-based; conditions: serum-free non-adherent culture, 10 d; 25–50 µM
Experimental: as §4
SW480WL cells were trypsinized into single cells, seeded on 24-well cell culture plates, pre-coated with 250 µL poly-HEMA (12 mg mL ^-1 in 95 % ethanol, Sigma) per well, and incubated with Wnt3a in the presence of Dvl inhibitors in the sphere culture medium (F12 : DMEM 1:1 , 1 × B-27 supplement, 20 ng mL ^-1 EGF, 20 ng mL ^-1 FGF, 0.5 % methylcellulose) for 10 d. Numbers of spheres were then counted under the microscope.

[11] = system: canonical Wnt signalling (β-catenin/TCF-dependent GFP) in HEK293 reporter cell line; assay: TOP-GFP reporter assay (Wnt3a-induced); type: cell-based; conditions: Homo sapiens, 24 h, read-out: IC 50 Wnt3a-induced Wnt activation (TOP-GFP)
Text: Taking advantage of a lentivirus that encodes GFP in a β -catenin/TCF-dependent fashion (TOP-GFP, SABiosciences), a stable HEK293 reporter cell line was established to evaluate the inhibitory effect of compounds 18, 20, and 21 on canonical Wnt signalling activity. TOP-GFP expression in this cell line was induced by the ligand Wnt3a, which directly activates the Frizzled–Dishevelled complex and protects β -catenin from degradation by the destruction complex (Fig. 2a).
The lentivirus particle (CCS-018L, SABiosciences) encoding GFP under the control of a basal promoter element (TATA box) joined to tandem repeats of a consensus TCF/LEF binding site was transfected into HEK293 cells. Stable cells were selected by puromycin (2 µgmL^-1 ) treatment. Wnt signalling activity indicated by GFP intensity was measured by flow cytometry after 24 h incubation with recombinant mouse Wnt3a (100 ng mL ^-1 ) or GSK3 inhibitor CHIR99021 (3 µM ) in the presence of Dvl inhibitors.

[12] = molecular target: Dvl PDZ; conditions: internal Frizzled sequence; ref Wong et al., 2003; Chandanamali et al., 2009; read-out: K D Dvl PDZ domains; cited from earlier work

Compound | transcription of Wnt target genes (Axin2, LEF1, Bmp2) [1] | T Δ S Dvl-1 PDZ [2] [kcal mol ^-1] | Δ G Dvl-1 PDZ [2] [kcal mol ^-1] | Δ H Dvl-1 PDZ [2] [kcal mol ^-1] | effect on Chir99021-induced Wnt activation (TOPflash) [3] | effect on TOP-luciferase signals stimulated by Wnt3a [3] | accumulation of β-catenin [4] | effect on NF-κB-luciferase [5] | effect on Oct-luciferase [6] | effect on Notch-luciferase [7] | T Δ S Dvl-3 PDZ [8] [kcal mol ^-1] | Δ G Dvl-3 PDZ [8] [kcal mol ^-1] | Δ H Dvl-3 PDZ [8] [kcal mol ^-1] | Kd [8] [µM] | migration of SW480 cells enhanced by Wnt3a [9] | sphere formation of SW480 cells enhanced by Wnt3a [10] | IC50 [11] [µM] | n (stoichiometry) Dvl-1 PDZ ([2]; ITC one-site fit) | n (stoichiometry) Dvl-3 PDZ ([8]; ITC one-site fit) | Kd [12] [µM]
Cc1ccc(NS(=O)(=O)c2ccc(CNC(=O)c3cc(Br)c[nH]3)c(Cl)c2)c(C(=O)O)c1 [Compound 20] | reduced the transcription | -2.2 | -7.2 | -9.4 | no or a mild effect | specifically inhibited | inhibited accumulation | no or a mild effect; also recorded: no significant inhibitory effects | no or a mild effect; also recorded: no significant inhibitory effects | no or a mild effect; also recorded: no significant inhibitory effects | -3.6 | -6.8 | -10.4 | 9.8 ± 0.3 | reduced the migration; also recorded: prevented | reduced sphere formation; also recorded: prevented | 50 to 75 |  |  | 
Cc1ccc(NS(=O)(=O)c2ccc(CNC(=O)c3n[nH]c4ccccc34)c(Cl)c2)c(C(=O)O)c1 [Compound 18] | reduced the transcription | -4.7 | -7.5 | -12.2 |  |  | inhibited accumulation |  |  |  | -1.2 | -6.7 | -8.0 | 9.4 ± 0.6 | reduced the migration; also recorded: prevented | reduced sphere formation; also recorded: prevented | 50 to 75 | 1.12 | 1.14 | 
Frizzled peptide 525(GKTLQSWRRFYH)536: Frizzled peptide with internal sequence KTXXXW recognized by Dvl PDZ domains |  |  |  |  |  |  |  |  |  |  |  |  |  |  |  |  |  |  |  | ~10
